Measurements reported in publication PMC11752117 (Journal of Traditional and Complementary Medicine, 2024).
Where two headings read alike, the source gives them in different places.

Conditions: for concentration in plasma (molar) / concentration in plasma / concentration in lung tissue: 4 h after administration, respective extract 1000 mg/kg p.o.; for concentration in plasma / concentration in lung tissue: mean ± SD; for calculated concentration in lung tissue (molar): on the basis of lung water content approximately 80 % by weight
[1] = Day 1, infected hamsters, n = 4

COc1cc(O)c(C(=O)[C@@H]2[C@H](CC=C(C)C)C(C)=CC[C@H]2c2ccccc2)c(O)c1 [Panduratin A, panduratin A]
concentration in plasma (molar) (Day 1): ~4.21 µM | concentration in plasma [1]: 1710.4 ± 284.3 ng/mL | concentration in lung tissue (Day 1): 0.186 ± 0.015 µg/g | calculated concentration in lung tissue (molar) (Day 1): 0.37 µM | concentration in plasma (molar) (Day 3): ~7.27 µM | concentration in lung tissue (Day 3): 0.262 ± 0.047 µg/g | concentration in plasma (Day 3): 2954.1 ± 582.1 ng/mL | calculated concentration in lung tissue (molar) (Day 3): 0.52 µM | average concentrations in lung tissue (range over sampling days, respective extract 1000 mg/kg/day p.o.): 0.19 to 0.26 µg/g

C=C1CC[C@@H]2[C@](C)(CO)[C@H](O)CC[C@@]2(C)[C@@H]1C/C=C1/C(=O)OC[C@H]1O [Andrographolide, andrographolide]
concentration in plasma (molar) (Day 1): ~5.48 µM | concentration in plasma [1]: 1921.3 ± 508.4 ng/mL | concentration in lung tissue (Day 1): 0.750 ± 0.206 µg/g | calculated concentration in lung tissue (molar) (Day 1): 1.72 µM | concentration in plasma (molar) (Day 3): ~5.51 µM | concentration in lung tissue (Day 3): 0.800 ± 0.144 µg/g | concentration in plasma (Day 3): 1930.1 ± 257.7 ng/mL | calculated concentration in lung tissue (molar) (Day 3): 1.83 µM | concentration in plasma (molar) (Day 7): ~8.01 µM | concentration in lung tissue (Day 7): 0.850 ± 0.181 µg/g | concentration in plasma (Day 7): 2808.1 ± 547.4 ng/mL | calculated concentration in lung tissue (molar) (Day 7): ~1.94 µM
